Data taken from patent US12070455B2, “Thienopyrrole compounds” (Gilead Sciences, Inc., priority 2021, dated 2024).

How the values were obtained:
[1] = target: T1, TLR7 (Homo sapiens, UniProt Q9NYK1); assay: TLR7 human peripheral blood mononuclear cell (PBMC) cell-based assay; settings: human PBMCs; 1 h with test antagonist, then TLR7 agonist GS-986 400 nM for 6 h; cytokines (IL-6 and IFNα) in supernatant; read-out: TLR-7 EC50
T1 construct: Human peripheral blood mononuclear cells (PBMCs) consist of lymphocytes, monocytes and dendritic cells that express TLR7, TLR8 and TLR9; endogenous in cells; host or cells: cryopreserved human PBMCs from healthy donors
T1 sequence (Q9NYK1 27-1049): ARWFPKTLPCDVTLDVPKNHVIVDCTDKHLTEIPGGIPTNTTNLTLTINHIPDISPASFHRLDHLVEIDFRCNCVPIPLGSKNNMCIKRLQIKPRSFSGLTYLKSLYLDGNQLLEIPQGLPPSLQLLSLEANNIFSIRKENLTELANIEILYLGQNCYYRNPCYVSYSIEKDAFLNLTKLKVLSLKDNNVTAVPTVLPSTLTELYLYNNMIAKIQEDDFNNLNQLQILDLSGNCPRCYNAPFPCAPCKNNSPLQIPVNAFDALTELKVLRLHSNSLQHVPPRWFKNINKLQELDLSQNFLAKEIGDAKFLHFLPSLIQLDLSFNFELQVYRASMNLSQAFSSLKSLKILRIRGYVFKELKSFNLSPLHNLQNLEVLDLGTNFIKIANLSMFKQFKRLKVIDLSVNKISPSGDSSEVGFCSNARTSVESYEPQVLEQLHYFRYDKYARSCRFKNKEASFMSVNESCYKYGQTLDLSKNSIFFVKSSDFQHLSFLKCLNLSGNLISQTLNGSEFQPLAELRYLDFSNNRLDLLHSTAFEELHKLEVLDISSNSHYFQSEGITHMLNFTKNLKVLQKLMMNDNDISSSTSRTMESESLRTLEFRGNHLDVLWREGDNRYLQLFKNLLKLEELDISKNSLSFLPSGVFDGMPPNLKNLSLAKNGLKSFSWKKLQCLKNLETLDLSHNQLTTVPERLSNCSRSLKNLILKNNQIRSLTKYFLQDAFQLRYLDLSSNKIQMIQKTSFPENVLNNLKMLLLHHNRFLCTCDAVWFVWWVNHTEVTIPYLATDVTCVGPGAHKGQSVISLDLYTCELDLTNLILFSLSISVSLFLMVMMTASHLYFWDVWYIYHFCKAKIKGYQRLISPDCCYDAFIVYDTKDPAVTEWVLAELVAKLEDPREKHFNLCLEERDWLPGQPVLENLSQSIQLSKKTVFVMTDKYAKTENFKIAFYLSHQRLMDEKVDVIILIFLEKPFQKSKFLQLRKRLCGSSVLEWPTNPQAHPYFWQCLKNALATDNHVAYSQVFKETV
Description: TLR7/9 Human Peripheral Blood Mononuclear Cell (PBMC) Cell-Based Assay
Human peripheral blood mononuclear cells (PBMCs) consist of lymphocytes, monocytes and dendritic cells that express TLR7, TLR8 and TLR9. These cells respond to TLR7, TLR8 and TLR9 ligand stimulation and produce cytokines and chemokines in vitro and in vivo. Human PBMCs are therefore suitable to be used in a cell-based assay to assess the in vitro potency of a TLR 7, 8, and/or 9 antagonist.
Cryopreserved human PBMCs from healthy donors were thawed and resuspended in RPMI-1640 media with L-glutamine (Corning) supplemented with 10% Fetal Bovine Serum (Hyclone) and 1× Penicillin-Streptomycin (Corning). After counting, the cell density was adjusted to 2 million cells/ml and incubated for 1 hour at 37° C., 5% CO2 for recovery. Following the recovery, the cells were plated by adding 50 μl per well (100,000 cells) to 384-well cell culture plates (Greiner) containing 250 nl of test antagonists in 100% DMSO per well, in a 10 points dose response in quadruplicates. PBMCs were incubated in the presence of test antagonists for one hour at 37° C., 5% CO2 before being stimulated with a TLR7 or TLR9 agonist. GS-986 (Gilead Sciences) was used as the TLR7 agonist at a final concentration of 400 nM. ODN-2216 (InvivoGen) was used as the TLR9 agonist at a final concentration of 3 μM. PBMCs were incubated in the presence of the test antagonist and the TLR7 (or TLR9) agonist for an additional 6 hours at 37° C., 5% CO2. At the end of the incubation, the cell culture plates were centrifuged at 500 g for 5 min, and the cell culture supernatant was collected. The level of cytokines (IL-6 and IFNα) in the supernatant was measured by electrochemiluminescence immunoassays (Mesoscale Discovery) following manufacturer's recommended protocols. The level of cytokine measured was plotted against the test antagonist concentration and fitted to a sigmoidal function to determine the EC50, which are shown below in Table 6.

[2] = target: T2, TLR8 (Homo sapiens, UniProt Q9NR97); assay: TLR8 human peripheral blood mononuclear cell (PBMC) cell-based assay; settings: human PBMCs; 1 h with antagonist, then TLR8 agonist Compound A 800 nM for 6 h; cytokines (TNFa and IL12p40) in supernatant; read-out: TLR-8 EC50
T2 construct: Human peripheral blood mononuclear cells (PBMCs) consist of lymphocytes, monocytes and dendritic cells that express TLR7, TLR8 and TLR9; endogenous in cells; host or cells: cryopreserved human PBMCs from healthy donors
T2 sequence (Q9NR97 27-1041): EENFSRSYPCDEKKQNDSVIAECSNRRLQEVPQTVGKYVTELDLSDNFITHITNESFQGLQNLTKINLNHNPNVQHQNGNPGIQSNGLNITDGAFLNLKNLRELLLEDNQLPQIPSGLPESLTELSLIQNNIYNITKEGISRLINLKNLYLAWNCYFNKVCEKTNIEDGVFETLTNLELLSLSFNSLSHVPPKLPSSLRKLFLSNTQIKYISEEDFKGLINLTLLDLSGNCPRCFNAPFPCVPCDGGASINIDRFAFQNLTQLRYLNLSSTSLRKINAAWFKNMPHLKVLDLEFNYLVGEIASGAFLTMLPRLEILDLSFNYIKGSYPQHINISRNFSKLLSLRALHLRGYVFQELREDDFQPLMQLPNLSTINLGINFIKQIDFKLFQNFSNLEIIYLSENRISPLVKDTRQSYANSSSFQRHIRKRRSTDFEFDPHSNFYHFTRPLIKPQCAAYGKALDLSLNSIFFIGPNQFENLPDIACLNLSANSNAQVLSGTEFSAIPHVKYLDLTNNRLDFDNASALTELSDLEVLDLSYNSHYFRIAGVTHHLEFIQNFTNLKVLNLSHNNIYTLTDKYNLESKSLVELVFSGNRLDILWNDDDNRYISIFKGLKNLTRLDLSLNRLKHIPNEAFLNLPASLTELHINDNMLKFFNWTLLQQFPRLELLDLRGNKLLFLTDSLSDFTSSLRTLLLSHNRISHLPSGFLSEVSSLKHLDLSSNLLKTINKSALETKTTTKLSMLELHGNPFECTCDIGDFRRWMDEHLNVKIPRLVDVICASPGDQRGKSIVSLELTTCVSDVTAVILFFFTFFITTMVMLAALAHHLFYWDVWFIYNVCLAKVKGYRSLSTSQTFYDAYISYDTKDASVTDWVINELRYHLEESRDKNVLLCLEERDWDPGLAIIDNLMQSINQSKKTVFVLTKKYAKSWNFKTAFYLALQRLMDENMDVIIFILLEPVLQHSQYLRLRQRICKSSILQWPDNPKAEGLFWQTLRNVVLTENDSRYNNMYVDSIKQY
Procedure: TLR8 Human Peripheral Blood Mononuclear Cell (PBMC) Cell-Based Assay
Cryopreserved human PBMCs from healthy donors were thawed and resuspended in RPMI-1640 media with L-glutamine (Corning) supplemented with 10% Fetal Bovine Serum (Hyclone) and 1× Penicillin-Streptomycin (Corning). After counting, the cell density was adjusted to 2 million cells/ml and incubated for 1 hour at 37° C., 5% CO2 for recovery. Following the recovery, the cells were plated by adding 50 μl per well (100,000 cells) to 384-well cell culture plates (Greiner) containing 250 nl of test antagonists in 100% DMSO per well, in a 10 points dose response in quadruplicates. PBMCs were incubated in the presence of antagonists for one hour at 37° C., 5% CO2 before being stimulated with TLR8 agonist. Compound A (Gilead Sciences, U.S. Pat. No. 10,285,990) was used as the TLR8 agonist at a final concentration of 800 nM. PBMCs were incubated in the presence of antagonist and the TLR8 agonist for an additional 6 hours at 37° C., 5% CO2. At the end of the incubation, the cell culture plates were centrifuged at 500 g for 5 min, and the cell culture supernatant was collected. The level of cytokines (TNFa and IL12p40) in the supernatant was measured by electrochemiluminescence immunoassays (Mesoscale Discovery) following manufacturer's recommended protocols. The level of cytokine measured was plotted against the antagonist concentration and fitted to a sigmoidal function to determine the EC50, which are shown below in Table 6.

| EC50 [1] | EC50 [2] | SMILES |
| --- | --- | --- |
| 0.68 nM | 15.2 nM | Cc1c(C2CCN(C(=O)[C@H]3C[C@H](F)CN3)CC2)sc2[nH]c(-c3cn4ncnc4c4c3CCC4)c(C(C)C)c12 [Example 17] |
| 1.17 nM | 26.7 nM | Cc1c(C2CCN(C(=O)[C@H]3COCCN3)CC2)sc2[nH]c(-c3cn4ncnc4c4c3COC4)c(C(C)C)c12 [Example 52] |
| 0.51 nM | 1.32 nM | Cc1c(-c2ccc(N3CCNCC3)cc2)sc2[nH]c(-c3cn4ncnc4c4c3CCC4)c(C(C)C)c12 [Example 21, 5-(8,9-dihydro-7H-cyclopenta[c][1,2,4]triazolo[1,5-a]pyridin-6-yl)-4-isopropyl-3-methyl-2-(4-(piperazin-1-yl)phenyl)-6H-thieno[2,3-b]pyrrole] |

Further lines, the compound ahead of its results:

| SMILES | EC50 [1] | EC50 [2] |
| --- | --- | --- |
| Cc1c(C2CCN(CC(N)=O)CC2)sc2[nH]c(-c3cn4ncnc4c4c3CCC4)c(C(C)C)c12 [Example 6, 2-(4-(5-(8,9-dihydro-7H-cyclopenta[c][1,2,4]triazolo[1,5-a]pyridin-6-yl)-4-isopropyl-3-methyl-6H-thieno[2,3-b]pyrrol-2-yl)piperidin-1-yl)acetamide] | 0.35 nM | 3.06 nM |
| CC(C)c1c(-c2cn3ncnc3c3c2CCC3)[nH]c2sc(C3CCN(C(=O)[C@H]4COCCN4)CC3)cc12 [Example 33] | 2.33 nM | 7.57 nM |
| Cc1nc2c3c(c(-c4[nH]c5sc([C@@H]6C[C@H]7CC[C@@H](C6)N7CC(N)=O)c(C)c5c4C(C)C)cn2n1)COC3 [Example 46] | 1.21 nM | 77.9 nM |
| Cc1c(C2CC3CCC(C2)N3)sc2[nH]c(-c3cn4ncnc4c4c3CCC4)c(C(C)C)c12 (stereo not drawn) [Example 2] | 0.95 nM | 3.94 nM |
| CO[C@H]1CN[C@@H](C(=O)N2CCC(c3sc4[nH]c(-c5cn6ncnc6c6c5CCC6)c(C(C)C)c4c3C)CC2)C1 [Example 18] | 0.44 nM | 4.42 nM |
| Cc1c(C2CC3CCC(C2)N3CC(N)=O)sc2[nH]c(-c3cn4ncnc4c4c3CCC4)c(C(C)C)c12 (stereo not drawn) [Example 7] | 0.78 nM | 3.91 nM |
